One molecule from ChEMBL document CHEMBL1165930, “The anticancer activity of 3- and 10-bromofascaplysins is mediated by caspase-8, -9, -3-dependent apoptosis” (Bioorg Med Chem, 2010) can be followed below.

Activity calls are given as the source filed them. No cut-off for these calls is given here.

In one assay the test system is SK-MEL-28. Kind of assay: Cytotoxicity against human SK-MEL-28 cells after 22 hrs by MTS assay. To be noted: SK-MEL-28, 22 h. It counts as functional, cell-based. On the technique in general: Tetrazolium assays rely on reduction of a dye to a coloured formazan, in cell work by metabolically active cells.
The subject of another assay is HeLa. Kind of assay: Cytotoxicity against human HeLa cells after 22 hrs by MTS assay. It counts as functional, cell-based.
The subject of assay [1] is HL-60. Description: Induction of apoptosis in human HL60 cells assessed as decrease in PARP level at 250 nM after 24 hrs by Western blot analysis. It counts as functional, cell-based. On the technique in general: Immunoblotting shows a protein as a band on a membrane.
Another assay deals with THP-1. Description: Cytotoxicity against human THP1 cells after 22 hrs by MTS assay. It counts as functional, cell-based. To be noted: THP-1, 22 h.
The subject of assay [2] is HL-60. Kind of assay: Induction of apoptosis in human HL60 cells assessed as early apoptotic cells at 50 nM after 24 hrs by FITC-conjugated annexin V and propidium iodide staining-based flow cytometry. It counts as functional.
Assay [3] concerns HL-60. Kind of assay: Induction of apoptosis in human HL60 cells assessed as total apoptotic cells at 1000 nM after 24 hrs by FITC-conjugated annexin V and propidium iodide staining-based flow cytometry. It counts as functional.
A further assay relates to DLD-1. Kind of assay: Cytotoxicity against human DLD1 cells after 22 hrs by MTS assay. It counts as functional, cell-based. To be noted: DLD-1, 22 h.
A short description of assay [4]: Inhibition of EGF-stimulated viability of mouse JB6 Cl41 cells after 22 hrs by MTS assay. It counts as functional, cell-based. To be noted: JB6 Cl41, 22 h.
For assay [5], the system named is HL-60. Description: Induction of apoptosis in human HL60 cells assessed as early apoptotic cells at 500 to 1000 nM after 24 hrs by FITC-conjugated annexin V and propidium iodide staining-based flow cytometry. It counts as functional. (In general: Flow cytometry measures light scatter and fluorescence of single cells or particles in a stream.)
Assay [6] relates to HL-60. Kind of assay: Induction of apoptosis in human HL60 cells assessed as decrease in procaspase-9 level at 500 nM after 24 hrs by Western blot analysis. It counts as functional, cell-based.
A short description of assay [7]: Cytotoxicity against human SNUC4 cells after 22 hrs by MTS assay. It counts as functional, cell-based. The settings on record: SNU-C4, 22 h.
In assay [8] the test system is HL-60. Description: Induction of apoptosis in human HL60 cells assessed as early apoptotic cells at 250 nM after 24 hrs by FITC-conjugated annexin V and propidium iodide staining-based flow cytometry. It counts as functional.
In assay [9] the test system is HL-60. Kind of assay: Induction of apoptosis in human HL60 cells assessed as decrease in procaspase-8 level at 500 nM after 24 hrs by Western blot analysis. It counts as functional, cell-based.
Assay [10] concerns HL-60. Kind of assay: Induction of apoptosis in human HL60 cells assessed as change in mitochondrial permeability at 250 nM after 24 hrs by DiOC6 staining-based flow cytometry (RVB = 90.3%). It counts as functional.
A further assay deals with MDA-MB-231. Kind of assay: Cytotoxicity against human MDA-MB-231 cells after 22 hrs by MTS assay. The settings on record: MDA-MB-231, 22 h. It counts as functional, cell-based.
Assay [11] relates to HL-60. Description: Induction of apoptosis in human HL60 cells assessed as decrease in Bid protein level at 500 nM after 24 hrs by Western blot analysis. It counts as functional, cell-based.
Assay [12] concerns HL-60. Kind of assay: Induction of apoptosis in human HL60 cells assessed as decrease in PARP level at 500 nM after 24 hrs by Western blot analysis. It counts as functional, cell-based.
Assay [13] concerns HL-60. Kind of assay: Induction of apoptosis in human HL60 cells assessed as total apoptotic cells at 50 to 100 nM after 24 hrs by FITC-conjugated annexin V and propidium iodide staining-based flow cytometry. It counts as functional.
The test system of assay [14] is HL-60. Kind of assay: Cytotoxicity against human HL60 cells after 22 hrs by MTS assay. To be noted: HL-60, 22 h. It counts as functional, cell-based.
Assay [15] deals with HL-60. Description: Induction of apoptosis in human HL60 cells assessed as decrease in procaspase-3 level at 500 nM after 24 hrs by Western blot analysis. It counts as functional, cell-based.

With `O=C1c2ccccc2-[n+]2ccc3c([nH]c4cc(Br)ccc43)c21.[Cl-]`, the IC50 was above 1000 nM with SK-MEL-28; 86 nM in the assay on HeLa; 161 nM in the assay with THP-1; 118 nM with DLD-1; 144 nM in assay [4]; 125 nM in [7]. The IC50 was found to be 173 nM in the assay with MDA-MB-231 and 142 nM with HL-60 [14]. For the same molecule, the inhibition result in the assay with HL-60 [1], in the assay with HL-60 [6], in the assay on HL-60 [9], with HL-60 [11], in the assay on HL-60 [12] and in the assay on HL-60 [15] was “Active” throughout. The Activity in the assay on HL-60 [2] came out at 5%; in the assay with HL-60 [3], 90%; in the assay with HL-60 [5], 20%; in the assay with HL-60 [8] it was 40%; in the assay on HL-60 [10], 60.1%; with HL-60 [13], 20%.

What is called IC50 is the midpoint of a concentration-inhibition curve.
